Patent US20260130395A1, “Water Dispersible Botanical Compositions” (Aquila Black Limited, priority 2021, published 2026)

Experiment: Stability of cannabinoid compounds and Vitamin E components in Beverage 1 (AB White) by LCMSMS
Assay type: physicochemical
Settings: for Stability of Plant-Derived Cannabinoid Compounds in AB White, 21-25° C.: AB White stored at 21-25° C.
[1] = AB White stored at 8° C., 570 days

CCCCCc1cc(O)c2c(c1)OC(C)(C)[C@@H]1CCC(C)=C[C@@H]21 [D9 THC, delta-9-tetrahydrocannabinol, reference compound]
Stability of Plant-Derived Cannabinoid Compounds in AB White, 8° C. (AB White stored at 8° C., 0 days): 12.2 µg/mL
Stability of Plant-Derived Cannabinoid Compounds in AB White, 8° C. (AB White stored at 8° C., 1 days): 12.20 µg/mL
Stability of Plant-Derived Cannabinoid Compounds in AB White, 8° C. (AB White stored at 8° C., 2 days): 11.91 µg/mL
Stability of Plant-Derived Cannabinoid Compounds in AB White, 8° C. (AB White stored at 8° C., 3 days): 12.25 µg/mL
Stability of Plant-Derived Cannabinoid Compounds in AB White, 8° C. (AB White stored at 8° C., 5 days): 12.11 µg/mL
Stability of Plant-Derived Cannabinoid Compounds in AB White, 8° C. (AB White stored at 8° C., 8 days): 11.83 µg/mL
Stability of Plant-Derived Cannabinoid Compounds in AB White, 8° C. (AB White stored at 8° C., 9 days): 12.14 µg/mL
Stability of Plant-Derived Cannabinoid Compounds in AB White, 8° C. (AB White stored at 8° C., 10 days): 12.07 µg/mL
Stability of Plant-Derived Cannabinoid Compounds in AB White, 8° C. (AB White stored at 8° C., 11 days): 11.83 µg/mL
Stability of Plant-Derived Cannabinoid Compounds in AB White, 8° C. (AB White stored at 8° C., 12 days): 11.88 µg/mL
Stability of Plant-Derived Cannabinoid Compounds in AB White, 8° C. (AB White stored at 8° C., 15 days): 12.08 µg/mL
Stability of Plant-Derived Cannabinoid Compounds in AB White, 8° C. (AB White stored at 8° C., 16 days): 12.18 µg/mL
Stability of Plant-Derived Cannabinoid Compounds in AB White, 8° C. (AB White stored at 8° C., 17 days): 12.05 µg/mL
Stability of Plant-Derived Cannabinoid Compounds in AB White, 8° C. (AB White stored at 8° C., 18 days): 12.00 µg/mL
Stability of Plant-Derived Cannabinoid Compounds in AB White, 8° C. (AB White stored at 8° C., 19 days): 12.11 µg/mL
Stability of Plant-Derived Cannabinoid Compounds in AB White, 8° C. (AB White stored at 8° C., 22 days): 11.97 µg/mL
Stability of Plant-Derived Cannabinoid Compounds in AB White, 8° C. (AB White stored at 8° C., 23 days): 12.03 µg/mL
Stability of Plant-Derived Cannabinoid Compounds in AB White, 8° C. (AB White stored at 8° C., 24 days): 11.87 µg/mL
Stability of Plant-Derived Cannabinoid Compounds in AB White, 8° C. (AB White stored at 8° C., 25 days): 11.99 µg/mL
Stability of Plant-Derived Cannabinoid Compounds in AB White, 8° C. (AB White stored at 8° C., 26 days): 11.97 µg/mL
Stability of Plant-Derived Cannabinoid Compounds in AB White, 8° C. (AB White stored at 8° C., 29 days): 12.25 µg/mL
Stability of Plant-Derived Cannabinoid Compounds in AB White, 8° C. (AB White stored at 8° C., 30 days): 12.05 µg/mL
Stability of Plant-Derived Cannabinoid Compounds in AB White, 8° C. (AB White stored at 8° C., 60 days): 11.77 µg/mL
Stability of Plant-Derived Cannabinoid Compounds in AB White, 8° C. (AB White stored at 8° C., 90 days): 11.92 µg/mL
Stability of Plant-Derived Cannabinoid Compounds in AB White, 8° C. (AB White stored at 8° C., 120 days): 11.79 µg/mL
Stability of Plant-Derived Cannabinoid Compounds in AB White, 8° C. (AB White stored at 8° C., 150 days): 12.07 µg/mL
Stability of Plant-Derived Cannabinoid Compounds in AB White, 8° C. (AB White stored at 8° C., 180 days): 11.66 µg/mL
Stability of Plant-Derived Cannabinoid Compounds in AB White, 8° C. (AB White stored at 8° C., 210 days): 11.79 µg/mL
Stability of Plant-Derived Cannabinoid Compounds in AB White, 8° C. (AB White stored at 8° C., 240 days): 11.70 µg/mL
Stability of Plant-Derived Cannabinoid Compounds in AB White, 8° C. (AB White stored at 8° C., 270 days): 11.98 µg/mL
Stability of Plant-Derived Cannabinoid Compounds in AB White, 8° C. (AB White stored at 8° C., 300 days): 11.70 µg/mL
Stability of Plant-Derived Cannabinoid Compounds in AB White, 8° C. (AB White stored at 8° C., 330 days): 11.68 µg/mL
Stability of Plant-Derived Cannabinoid Compounds in AB White, 8° C. (AB White stored at 8° C., 360 days): 11.88 µg/mL
Stability of Plant-Derived Cannabinoid Compounds in AB White, 8° C. (AB White stored at 8° C., 390 days): 11.85 µg/mL
Stability of Plant-Derived Cannabinoid Compounds in AB White, 8° C. (AB White stored at 8° C., 420 days): 11.77 µg/mL
Stability of Plant-Derived Cannabinoid Compounds in AB White, 8° C. (AB White stored at 8° C., 450 days): 11.80 µg/mL
Stability of Plant-Derived Cannabinoid Compounds in AB White, 8° C. (AB White stored at 8° C., 480 days): 11.60 µg/mL
Stability of Plant-Derived Cannabinoid Compounds in AB White, 8° C. (AB White stored at 8° C., 510 days): 11.33 µg/mL
Stability of Plant-Derived Cannabinoid Compounds in AB White, 8° C. (AB White stored at 8° C., 540 days): 11.27 µg/mL
Stability of Plant-Derived Cannabinoid Compounds in AB White, 8° C. [1]: 11.21 µg/mL
stability over the entire period (in words) [1]: high degree of stability
Stability of Plant-Derived Cannabinoid Compounds in AB White, 21-25° C. (0 days): 12.2 µg/mL
Stability of Plant-Derived Cannabinoid Compounds in AB White, 21-25° C. (1 days): 11.8 µg/mL
Stability of Plant-Derived Cannabinoid Compounds in AB White, 21-25° C. (2 days): 12.0 µg/mL
Stability of Plant-Derived Cannabinoid Compounds in AB White, 21-25° C. (3 days): 11.9 µg/mL
Stability of Plant-Derived Cannabinoid Compounds in AB White, 21-25° C. (5 days): 12.1 µg/mL
Stability of Plant-Derived Cannabinoid Compounds in AB White, 21-25° C. (8 days): 12.3 µg/mL
Stability of Plant-Derived Cannabinoid Compounds in AB White, 21-25° C. (9 days): 11.8 µg/mL
Stability of Plant-Derived Cannabinoid Compounds in AB White, 21-25° C. (10 days): 11.7 µg/mL
Stability of Plant-Derived Cannabinoid Compounds in AB White, 21-25° C. (11 days): 12.1 µg/mL
Stability of Plant-Derived Cannabinoid Compounds in AB White, 21-25° C. (12 days): 11.9 µg/mL
Stability of Plant-Derived Cannabinoid Compounds in AB White, 21-25° C. (15 days): 12.1 µg/mL
Stability of Plant-Derived Cannabinoid Compounds in AB White, 21-25° C. (16 days): 12.1 µg/mL
Stability of Plant-Derived Cannabinoid Compounds in AB White, 21-25° C. (17 days): 11.9 µg/mL
Stability of Plant-Derived Cannabinoid Compounds in AB White, 21-25° C. (18 days): 11.8 µg/mL
Stability of Plant-Derived Cannabinoid Compounds in AB White, 21-25° C. (19 days): 12.3 µg/mL
Stability of Plant-Derived Cannabinoid Compounds in AB White, 21-25° C. (22 days): 11.9 µg/mL
Stability of Plant-Derived Cannabinoid Compounds in AB White, 21-25° C. (23 days): 12.0 µg/mL
Stability of Plant-Derived Cannabinoid Compounds in AB White, 21-25° C. (24 days): 12.1 µg/mL
Stability of Plant-Derived Cannabinoid Compounds in AB White, 21-25° C. (25 days): 12.3 µg/mL
Stability of Plant-Derived Cannabinoid Compounds in AB White, 21-25° C. (26 days): 12.1 µg/mL
